Values of other authors as cited in patent US9554577B2, “Herbicidal formulation” (priority 2011, dated 2017).

Columns and labels:
[1] = chlorinated hydrocarbons and aromatic solvents such as methylene chloride, acetone and xylene

Which “stability under acidic and alkaline conditions” value does the source give for CCC(CC)Nc1c([N+](=O)[O-])cc(C)c(C)c1[N+](=O)[O-] [Pendimethalin, n-(1-ethylpropyl)-3,4-dimethyl-2,6-dinitrobenzenamine] here?
The value was “stable”.

What about the “solubility in organic solvents” value [1] of the same compound?
Its value is “soluble”.
